Measurements reported in US8722849B2, “Polypeptides” (Novo Nordisk A/S, priority 2011, dated 2014).
≈ marks a conversion by molar mass, not a printed value. Read-outs that look alike come from different tables or passages of the source. Starred links: 1 amine or outer side, 2 acyl side, 3 side chain; linkers in the order of their positions; H or OH if unused. Positions of bridges follow the written chain, without caps; N, C: chain ends. Residues, ends and D or L forms follow the SMILES beside them. *: point of attachment. C18 diacid = O=C(O)CCCCCCCCCCCCCCCCC(=O)*; γGlu = O=C(O)[C@H](CCC(=O)[*:2])N[*:1]

Assays:
[1] = biological target: T1, human calcitonin receptor (Homo sapiens, UniProt P30988); experiment: Assay (II)a functional CRE-luciferase assay, human calcitonin receptor; assay type: cell-based; details: Table 7; human calcitonin (CTa) receptor
T1 construct: expressed in transfected cells; host or cells: BHK570
T1 sequence (P30988 25-474): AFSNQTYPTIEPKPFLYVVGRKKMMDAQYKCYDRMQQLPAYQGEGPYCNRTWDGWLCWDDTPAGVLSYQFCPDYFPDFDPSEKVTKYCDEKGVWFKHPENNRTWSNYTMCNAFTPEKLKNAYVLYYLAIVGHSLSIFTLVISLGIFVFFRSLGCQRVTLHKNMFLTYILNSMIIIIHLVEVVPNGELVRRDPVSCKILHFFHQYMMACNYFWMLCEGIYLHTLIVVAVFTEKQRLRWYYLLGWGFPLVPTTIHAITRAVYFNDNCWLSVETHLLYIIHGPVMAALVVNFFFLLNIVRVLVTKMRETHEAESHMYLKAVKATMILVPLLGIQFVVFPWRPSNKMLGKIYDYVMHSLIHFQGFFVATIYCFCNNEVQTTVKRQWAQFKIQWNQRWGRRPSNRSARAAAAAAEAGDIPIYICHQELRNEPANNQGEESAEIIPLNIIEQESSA

[2] = biological target: T2, human amylin receptor (amylin 3(a) receptor: human calcitonin receptor + RAMP-3) (Homo sapiens, UniProt O60896+P30988); experiment: Assay (II)a functional CRE-luciferase assay, human amylin receptor; assay type: cell-based; details: Table 2; BHK amylin 3(a)-receptor/CRE-luc cells
T2 construct: expressed in transfected cells; host or cells: BHK570
T2 sequence (P30988 25-474): T1 sequence (P30988 25-474)
T2 sequence (O60896 24-148 partner): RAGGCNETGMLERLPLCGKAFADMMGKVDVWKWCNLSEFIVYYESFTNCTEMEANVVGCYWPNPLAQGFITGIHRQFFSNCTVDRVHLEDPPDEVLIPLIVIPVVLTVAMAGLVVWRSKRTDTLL

[3] = Assay (IV) determination of solubility; assay type: physicochemical
Outline: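 Eight 100 mM buffers (glycylglycine pH 3.0–5.0, bistrispropane pH 6.0–8.0) each received an equal volume of polypeptide dissolved in water at ~500 nmol/ml. Soluble polypeptide was measured by HPLC following 18 hours at room temperature and centrifugation.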

[4] = biological target: T3, rat calcitonin (a) receptor (Rattus norvegicus, UniProt P32214); experiment: Assay (II)b functional cAMP FlashPlate assay, rat calcitonin receptor; assay type: cell-based; details: Table 11; read-out: CTa receptor rat EC50
T3 construct: expressed in transfected cells; host or cells: BHK tk'ts 13
T3 sequence (P32214 25-479 isoform P32214-2 limits assumed): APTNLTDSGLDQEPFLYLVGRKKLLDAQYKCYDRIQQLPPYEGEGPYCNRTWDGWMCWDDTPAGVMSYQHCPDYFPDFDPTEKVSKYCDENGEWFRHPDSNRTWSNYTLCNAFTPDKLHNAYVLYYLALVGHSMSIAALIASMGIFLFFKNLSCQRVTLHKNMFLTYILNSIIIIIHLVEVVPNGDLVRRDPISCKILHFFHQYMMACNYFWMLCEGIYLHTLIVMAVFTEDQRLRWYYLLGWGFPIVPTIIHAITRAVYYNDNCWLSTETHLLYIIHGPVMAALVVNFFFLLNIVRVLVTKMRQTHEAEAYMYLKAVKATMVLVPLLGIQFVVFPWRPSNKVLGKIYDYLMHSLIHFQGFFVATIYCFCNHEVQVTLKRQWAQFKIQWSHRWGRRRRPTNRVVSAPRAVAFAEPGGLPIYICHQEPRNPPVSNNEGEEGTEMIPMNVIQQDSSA
Outline: (§1)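 cAMP accumulation in transiently transfected BHK tk'ts 13 cells, 100.000 cells/well, expressing rat calcitonin(a) receptor or its RAMP3 co-expression form (amylin 3(a)): 30 min stimulation with IBMX, 24 hours post-transfection. Readout by competition of cellular versus radiolabelled cAMP in FlashPlates, scintillation counted after 3 h.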

[5] = biological target: T4, rat amylin 3(a) receptor (rat calcitonin(a) receptor + rat RAMP3) (Rattus norvegicus, UniProt P32214+Q9JJ73); experiment: Assay (II)b functional cAMP FlashPlate assay, rat amylin receptor; assay type: cell-based; details: Table 11
T4 construct: expressed in transfected cells; host or cells: BHK tk'ts 13
T4 sequence (P32214 25-479 isoform P32214-2 limits assumed): T3 sequence (P32214 25-479 isoform P32214-2 limits assumed)
T4 sequence (Q9JJ73 23-147 partner): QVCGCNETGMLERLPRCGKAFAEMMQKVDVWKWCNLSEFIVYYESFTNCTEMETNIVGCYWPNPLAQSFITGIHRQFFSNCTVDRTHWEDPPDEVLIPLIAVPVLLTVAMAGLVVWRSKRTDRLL
Outline: as §1

[6] = bistrispropane buffer, pH 6, pH 6.0, read-out: Solubility pH 6.0
[7] = bistrispropane buffer, pH 6.5, pH 6.5, read-out: Solubility pH 6.5
[8] = bistrispropane buffer, pH 7, pH 7.0, 18 hours at room temperature, Table 3, read-out: Solubility pH 7.0
[9] = bistrispropane buffer, pH 7, pH 7.0, Table 8, read-out: Solubility pH 7.0
[10] = bistrispropane buffer, pH 7, pH 7.0, read-out: Solubility pH 7.0
[11] = bistrispropane buffer, pH 7.5, pH 7.5, read-out: Solubility pH 7.5
[12] = bistrispropane buffer, pH 8, pH 8.0, read-out: Solubility pH 8.0
[13] = glycylglycine buffer, pH 3, pH 3.0, read-out: Solubility pH 3.0
[14] = glycylglycine buffer, pH 4, pH 4.0, 18 hours at room temperature, Table 2, read-out: Solubility pH 4.0
[15] = glycylglycine buffer, pH 4, pH 4.0, read-out: Solubility pH 4.0
[16] = glycylglycine buffer, pH 5, pH 5.0, read-out: Solubility pH 5.0

Row | EC50 [1] [nM] | EC50 [2] [nM] | solubility at 18 h [3, 6] [µM] | solubility at 18 h [3, 7] [µM] | solubility at 18 h [3, 8] [µM] | solubility at 18 h [3, 9] [µM] | solubility at 18 h ([3]; bistrispropane buffer, pH 7, pH 7.0, Table 9, read-out: Solubility pH 7.0) [µM] | solubility at 18 h [3, 10] [µM] | solubility at 18 h ([3]; bistrispropane buffer, pH 7.5, pH 7.5, Table 9, read-out: Solubility pH 7.5) [µM] | solubility at 18 h [3, 11] [µM] | solubility at 18 h [3, 12] [µM] | solubility at 18 h [3, 13] [µM] | solubility at 18 h [3, 14] [µM] | solubility at 18 h [3, 15] [µM] | solubility at 18 h [3, 16] [µM] | EC50 [4] [nM] | EC50 [5] [nM] | SMILES
1 | 0.0605 | 0.056 | > 200 | > 200 | > 200 | > 200 | > 200 | > 200 | > 200 | > 200 | > 200 | > 200 | > 200 | > 200 | > 200 | 0.148 | 0.023 | CC[C@H](C)[C@H](NC(=O)[C@@H]1CCCN1C(=O)CNC(=O)[C@H](Cc1ccccc1)NC(=O)[C@H](CC(N)=O)NC(=O)[C@H](CC(N)=O)NC(=O)[C@H](CO)NC(=O)[C@H](CO)NC(=O)[C@H](Cc1c[nH]cn1)NC(=O)[C@H](Cc1c[nH]cn1)NC(=O)[C@H](CC(C)C)NC(=O)[C@H](Cc1ccccc1)NC(=O)[C@H](CCC(=O)O)NC(=O)[C@H](C)NC(=O)[C@H](CC(C)C)NC(=O)[C@H](CCCNC(=N)N)NC(=O)[C@H](CCC(N)=O)NC(=O)[C@@H](NC(=O)[C@H](C)NC(=O)[C@@H]1CSSC[C@H](NC(=O)[C@H](CCCCN)NC(=O)CC[C@H](NC(=O)CCCCCCCCCCCCCCCCC(=O)O)C(=O)O)C(=O)N[C@@H](CC(N)=O)C(=O)N[C@@H]([C@@H](C)O)C(=O)N[C@@H](C)C(=O)N[C@@H]([C@@H](C)O)C(=O)N1)[C@@H](C)O)C(=O)N[C@@H](CC(C)C)C(=O)N1CCC[C@H]1C(=O)N1CCC[C@H]1C(=O)N[C@H](C(=O)N[C@@H](CC(N)=O)C(=O)N[C@H](C(=O)NCC(=O)N[C@@H](CO)C(=O)N[C@@H](Cc1c[nH]cn1)C(=O)N[C@H](C(=O)N[C@@H](Cc1ccc(O)cc1)C(N)=O)[C@@H](C)O)C(C)C)[C@@H](C)O [Example 59, N-alpha-[(S)-4-Carboxy-4-(17-carboxyheptadecanoylamino)butyryl]-[Glu14,His17,His35]-pramlintide] ({C18 diacid-γGlu}-KCNTATCATQRLAEFLHHSSNNFGPILPPTNVGSHTY-NH2; disulfide 2-7 (inferred))
2 | 0.335 | 0.0675 | > 200 | > 200 |  |  |  | 81 (≈ 362 µg/mL) |  | 50 (≈ 224 µg/mL) | 48 (≈ 215 µg/mL) | > 200 | > 200 | > 200 | > 200 | 2.36 | 0.038 | CC[C@H](C)[C@H](NC(=O)[C@@H]1CCCN1C(=O)CNC(=O)[C@H](Cc1ccccc1)NC(=O)[C@H](CC(N)=O)NC(=O)[C@H](CC(N)=O)NC(=O)[C@H](CO)NC(=O)[C@H](CO)NC(=O)[C@H](Cc1c[nH]cn1)NC(=O)[C@H](CCCNC(=N)N)NC(=O)[C@H](CC(C)C)NC(=O)[C@H](Cc1ccccc1)NC(=O)[C@H](CCC(=O)O)NC(=O)[C@H](C)NC(=O)[C@H](CC(C)C)NC(=O)[C@H](CCCNC(=N)N)NC(=O)[C@H](CCC(N)=O)NC(=O)[C@@H](NC(=O)[C@H](C)NC(=O)[C@@H]1CSSC[C@H](NC(=O)[C@H](CCCCN)NC(=O)CC[C@H](NC(=O)CCCCCCCCCCCCCCCCC(=O)O)C(=O)O)C(=O)N[C@@H](CC(N)=O)C(=O)N[C@@H]([C@@H](C)O)C(=O)N[C@@H](C)C(=O)N[C@@H]([C@@H](C)O)C(=O)N1)[C@@H](C)O)C(=O)N[C@@H](CC(C)C)C(=O)N1CCC[C@H]1C(=O)N1CCC[C@H]1C(=O)N[C@H](C(=O)N[C@@H](CC(N)=O)C(=O)N[C@H](C(=O)NCC(=O)N[C@@H](CO)C(=O)N[C@@H](Cc1c[nH]cn1)C(=O)N[C@H](C(=O)N[C@@H](Cc1ccc(O)cc1)C(N)=O)[C@@H](C)O)C(C)C)[C@@H](C)O [Example 61, N-alpha-[(S)-4-Carboxy-4-(17-carboxyheptadecanoylamino)butyryl]-[Glu14,Arg17,His35]-pramlintide] ({C18 diacid-γGlu}-KCNTATCATQRLAEFLRHSSNNFGPILPPTNVGSHTY-NH2; disulfide 2-7 (inferred))
3 | 1.07 | 0.172 | > 200 | > 200 | > 200 | > 200 |  | > 200 |  | > 200 | > 200 | > 200 | > 200 | > 200 | > 200 | 17.6 | 0.281 | CC[C@H](C)[C@H](NC(=O)[C@@H]1CCCN1C(=O)CNC(=O)[C@H](Cc1ccccc1)NC(=O)[C@H](CC(N)=O)NC(=O)[C@H](CC(N)=O)NC(=O)[C@H](CO)NC(=O)[C@H](CO)NC(=O)[C@H](Cc1c[nH]cn1)NC(=O)[C@H](CCCNC(=N)N)NC(=O)[C@H](CC(C)C)NC(=O)[C@H](Cc1ccccc1)NC(=O)[C@H](CCC(=O)O)NC(=O)[C@H](C)NC(=O)[C@H](CC(C)C)NC(=O)[C@H](CCCNC(=N)N)NC(=O)[C@H](CCC(N)=O)NC(=O)[C@@H](NC(=O)[C@H](C)NC(=O)[C@@H]1CSSC[C@H](NC(=O)[C@H](CCCCN)NC(=O)[C@H](CCC(=O)O)NC(=O)CC[C@H](NC(=O)CCCCCCCCCCCCCCCCC(=O)O)C(=O)O)C(=O)N[C@@H](CC(N)=O)C(=O)N[C@@H]([C@@H](C)O)C(=O)N[C@@H](C)C(=O)N[C@@H]([C@@H](C)O)C(=O)N1)[C@@H](C)O)C(=O)N[C@@H](CC(C)C)C(=O)N1CCC[C@H]1C(=O)N1CCC[C@H]1C(=O)N[C@H](C(=O)N[C@@H](CC(N)=O)C(=O)N[C@H](C(=O)NCC(=O)N[C@@H](CO)C(=O)N[C@@H](Cc1c[nH]cn1)C(=O)N[C@H](C(=O)N[C@@H](Cc1ccc(O)cc1)C(N)=O)[C@@H](C)O)C(C)C)[C@@H](C)O [Example 62, N-alpha-[(S)-4-Carboxy-4-(17-carboxyheptadecanoylamino)butyryl]-Glu-[Glu14,Arg17,His35]-pramlintide] ({C18 diacid-γGlu}-EKCNTATCATQRLAEFLRHSSNNFGPILPPTNVGSHTY-NH2; disulfide 3-8 (inferred); C-terminus assumed)
